{"source": "PubChem BioAssay AID2060888", "about": "(Molecular Pharmacology Branch, DTP, NCI, 2025);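 note: viability read after seven days of drug exposure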;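 for viability, T/C: 100% = DMSO vehicle control viability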", "tested_on": "695427-040-R-J1-PDC complex spheroid viability", "assay": "Anticancer human tumor 695427-040-R-J1-PDC patient-derived colon adenocarcinoma cell line growth inhibition [RAS]", "conditions": "for IC50: curve of first compound; for viability, T/C: stronger effect = lower value", "outline": "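Tumour cells grown as complex spheroids with HUVEC endothelial cells and mesenchymal stem cells, treated with RAS pathway inhibitor combinations. Each agent spans half-log steps from near clinical Cmax, or 10 microM where Cmax is unknown.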", "data": [{"smiles": "CC(=O)OC12COC1CC(O)C1(C)C(=O)C(O)C3=C(C)C(OC(=O)C(O)C(NC(=O)OC(C)(C)C)c4ccccc4)CC(O)(C(OC(=O)c4ccccc4)C21)C3(C)C", "note": "(centres undefined) + CCn1c(-c2cc(N3CCN(C)CC3)cnc2C(C)OC)c2c3cc(ccc31)-c1csc(n1)CC(NC(=O)C1CC1C)C(=O)N1CCCC(N1)C(=O)OCC(C)(C)C2", "values": [{"measurement": "IC50", "setting": "second compound 0.000949 µM", "result": "> 10000", "unit": "nM"}, {"measurement": "IC50", "setting": "second compound 0.003 µM", "result": "> 10000", "unit": "nM"}, {"measurement": "IC50", "setting": "second compound 0.00949 µM", "result": 292, "unit": "nM"}, {"measurement": "IC50", "setting": "second compound 0.03 µM", "result": 36.3, "unit": "nM"}, {"measurement": "IC50", "setting": "second compound 0.0949 µM", "result": "< 31.6", "unit": "nM"}, {"measurement": "IC50", "setting": "second compound 0.3 µM", "result": "< 31.6", "unit": "nM"}, {"measurement": "viability, T/C", "setting": "second compound 0.000949 µM, first compound 0.0316 µM", "result": 78.2, "unit": "%"}, {"measurement": "viability, T/C", "setting": "second compound 0.000949 µM, first compound 0.1 µM", "result": 73.5, "unit": "%"}, {"measurement": "viability, T/C", "setting": "second compound 0.000949 µM, first compound 0.316 µM", "result": 68.7, "unit": "%"}, {"measurement": "viability, T/C", "setting": "second compound 0.000949 µM, first compound 1 µM", "result": 57.2, "unit": "%"}, {"measurement": "viability, T/C", "setting": "second compound 0.000949 µM, first compound 3.16 µM", "result": 73.5, "unit": "%"}, {"measurement": "viability, T/C", "setting": "second compound 0.000949 µM, first compound 10 µM", "result": 52.7, "unit": "%"}, {"measurement": "viability, T/C", "setting": "second compound 0.003 µM, first compound 0.0316 µM", "result": 81.4, "unit": "%"}, {"measurement": "viability, T/C", "setting": "second compound 0.003 µM, first compound 0.1 µM", "result": 70.2, "unit": "%"}, {"measurement": "viability, T/C", "setting": "second compound 0.003 µM, first compound 0.316 µM", "result": 59.7, "unit": "%"}, {"measurement": "viability, T/C", "setting": "second compound 0.003 µM, first compound 1 µM", "result": 60.6, "unit": "%"}, {"measurement": "viability, T/C", "setting": "second compound 0.003 µM, first compound 3.16 µM", "result": 56.5, "unit": "%"}, {"measurement": "viability, T/C", "setting": "second compound 0.003 µM, first compound 10 µM", "result": 65.4, "unit": "%"}, {"measurement": "viability, T/C", "setting": "second compound 0.00949 µM, first compound 0.0316 µM", "result": 75.3, "unit": "%"}, {"measurement": "viability, T/C", "setting": "second compound 0.00949 µM, first compound 0.1 µM", "result": 53.5, "unit": "%"}, {"measurement": "viability, T/C", "setting": "second compound 0.00949 µM, first compound 0.316 µM", "result": 52.1, "unit": "%"}, {"measurement": "viability, T/C", "setting": "second compound 0.00949 µM, first compound 1 µM", "result": 44.7, "unit": "%"}, {"measurement": "viability, T/C", "setting": "second compound 0.00949 µM, first compound 3.16 µM", "result": 49.7, "unit": "%"}, {"measurement": "viability, T/C", "setting": "second compound 0.00949 µM, first compound 10 µM", "result": 34.3, "unit": "%"}, {"measurement": "viability, T/C", "setting": "second compound 0.03 µM, first compound 0.0316 µM", "result": 58.1, "unit": "%"}, {"measurement": "viability, T/C", "setting": "second compound 0.03 µM, first compound 0.1 µM", "result": 38.6, "unit": "%"}, {"measurement": "viability, T/C", "setting": "second compound 0.03 µM, first compound 0.316 µM", "result": 42.1, "unit": "%"}, {"measurement": "viability, T/C", "setting": "second compound 0.03 µM, first compound 1 µM", "result": 44.8, "unit": "%"}, {"measurement": "viability, T/C", "setting": "second compound 0.03 µM, first compound 3.16 µM", "result": 42.9, "unit": "%"}, {"measurement": "viability, T/C", "setting": "second compound 0.03 µM, first compound 10 µM", "result": 36.3, "unit": "%"}, {"measurement": "viability, T/C", "setting": "second compound 0.0949 µM, first compound 0.0316 µM", "result": 36.5, "unit": "%"}, {"measurement": "viability, T/C", "setting": "second compound 0.0949 µM, first compound 0.1 µM", "result": 36.6, "unit": "%"}, {"measurement": "viability, T/C", "setting": "second compound 0.0949 µM, first compound 0.316 µM", "result": 36.4, "unit": "%"}, {"measurement": "viability, T/C", "setting": "second compound 0.0949 µM, first compound 1 µM", "result": 33.3, "unit": "%"}, {"measurement": "viability, T/C", "setting": "second compound 0.0949 µM, first compound 3.16 µM", "result": 32.4, "unit": "%"}, {"measurement": "viability, T/C", "setting": "second compound 0.0949 µM, first compound 10 µM", "result": 29.6, "unit": "%"}, {"measurement": "viability, T/C", "setting": "second compound 0.3 µM, first compound 0.0316 µM", "result": 35.2, "unit": "%"}, {"measurement": "viability, T/C", "setting": "second compound 0.3 µM, first compound 0.1 µM", "result": 28.4, "unit": "%"}, {"measurement": "viability, T/C", "setting": "second compound 0.3 µM, first compound 0.316 µM", "result": 33.9, "unit": "%"}, {"measurement": "viability, T/C", "setting": "second compound 0.3 µM, first compound 1 µM", "result": 26.9, "unit": "%"}, {"measurement": "viability, T/C", "setting": "second compound 0.3 µM, first compound 3.16 µM", "result": 30.9, "unit": "%"}, {"measurement": "viability, T/C", "setting": "second compound 0.3 µM, first compound 10 µM", "result": 27.1, "unit": "%"}]}, {"smiles": "CCc1c2c(nc3ccc(O)cc13)-c1cc3c(c(=O)n1C2)COC(=O)[C@]3(O)CC", "note": "+ CCn1c(-c2cc(N3CCN(C)CC3)cnc2C(C)OC)c2c3cc(ccc31)-c1csc(n1)CC(NC(=O)C1CC1C)C(=O)N1CCCC(N1)C(=O)OCC(C)(C)C2", "values": [{"measurement": "IC50", "setting": "second compound 0.000949 µM", "result": 107, "unit": "nM"}, {"measurement": "IC50", "setting": "second compound 0.003 µM", "result": 73.2, "unit": "nM"}, {"measurement": "IC50", "setting": "second compound 0.00949 µM", "result": 56.8, "unit": "nM"}, {"measurement": "IC50", "setting": "second compound 0.03 µM", "result": 7.69, "unit": "nM"}, {"measurement": "IC50", "setting": "second compound 0.0949 µM", "result": "< 0.949", "unit": "nM"}, {"measurement": "IC50", "setting": "second compound 0.3 µM", "result": "< 0.949", "unit": "nM"}, {"measurement": "viability, T/C", "setting": "second compound 0.000949 µM, first compound 0.000949 µM", "result": 88.8, "unit": "%"}, {"measurement": "viability, T/C", "setting": "second compound 0.000949 µM, first compound 0.003 µM", "result": 87, "unit": "%"}, {"measurement": "viability, T/C", "setting": "second compound 0.000949 µM, first compound 0.00949 µM", "result": 75.6, "unit": "%"}, {"measurement": "viability, T/C", "setting": "second compound 0.000949 µM, first compound 0.03 µM", "result": 61.8, "unit": "%"}, {"measurement": "viability, T/C", "setting": "second compound 0.000949 µM, first compound 0.0949 µM", "result": 55.4, "unit": "%"}, {"measurement": "viability, T/C", "setting": "second compound 0.000949 µM, first compound 0.3 µM", "result": 33.7, "unit": "%"}, {"measurement": "viability, T/C", "setting": "second compound 0.003 µM, first compound 0.000949 µM", "result": 103, "unit": "%"}, {"measurement": "viability, T/C", "setting": "second compound 0.003 µM, first compound 0.003 µM", "result": 86.1, "unit": "%"}, {"measurement": "viability, T/C", "setting": "second compound 0.003 µM, first compound 0.00949 µM", "result": 66, "unit": "%"}, {"measurement": "viability, T/C", "setting": "second compound 0.003 µM, first compound 0.03 µM", "result": 63.6, "unit": "%"}, {"measurement": "viability, T/C", "setting": "second compound 0.003 µM, first compound 0.0949 µM", "result": 48, "unit": "%"}, {"measurement": "viability, T/C", "setting": "second compound 0.003 µM, first compound 0.3 µM", "result": 36.3, "unit": "%"}, {"measurement": "viability, T/C", "setting": "second compound 0.00949 µM, first compound 0.000949 µM", "result": 82.3, "unit": "%"}, {"measurement": "viability, T/C", "setting": "second compound 0.00949 µM, first compound 0.003 µM", "result": 64, "unit": "%"}, {"measurement": "viability, T/C", "setting": "second compound 0.00949 µM, first compound 0.00949 µM", "result": 65, "unit": "%"}, {"measurement": "viability, T/C", "setting": "second compound 0.00949 µM, first compound 0.03 µM", "result": 57.8, "unit": "%"}, {"measurement": "viability, T/C", "setting": "second compound 0.00949 µM, first compound 0.0949 µM", "result": 50, "unit": "%"}, {"measurement": "viability, T/C", "setting": "second compound 0.00949 µM, first compound 0.3 µM", "result": 26.6, "unit": "%"}, {"measurement": "viability, T/C", "setting": "second compound 0.03 µM, first compound 0.000949 µM", "result": 59.2, "unit": "%"}, {"measurement": "viability, T/C", "setting": "second compound 0.03 µM, first compound 0.003 µM", "result": 51.6, "unit": "%"}, {"measurement": "viability, T/C", "setting": "second compound 0.03 µM, first compound 0.00949 µM", "result": 55.3, "unit": "%"}, {"measurement": "viability, T/C", "setting": "second compound 0.03 µM, first compound 0.03 µM", "result": 35.3, "unit": "%"}, {"measurement": "viability, T/C", "setting": "second compound 0.03 µM, first compound 0.0949 µM", "result": 41.6, "unit": "%"}, {"measurement": "viability, T/C", "setting": "second compound 0.03 µM, first compound 0.3 µM", "result": 27.9, "unit": "%"}, {"measurement": "viability, T/C", "setting": "second compound 0.0949 µM, first compound 0.000949 µM", "result": 45.2, "unit": "%"}, {"measurement": "viability, T/C", "setting": "second compound 0.0949 µM, first compound 0.003 µM", "result": 41.7, "unit": "%"}, {"measurement": "viability, T/C", "setting": "second compound 0.0949 µM, first compound 0.00949 µM", "result": 46.7, "unit": "%"}, {"measurement": "viability, T/C", "setting": "second compound 0.0949 µM, first compound 0.03 µM", "result": 31.8, "unit": "%"}, {"measurement": "viability, T/C", "setting": "second compound 0.0949 µM, first compound 0.0949 µM", "result": 30.7, "unit": "%"}, {"measurement": "viability, T/C", "setting": "second compound 0.0949 µM, first compound 0.3 µM", "result": 20.5, "unit": "%"}, {"measurement": "viability, T/C", "setting": "second compound 0.3 µM, first compound 0.000949 µM", "result": 38.1, "unit": "%"}, {"measurement": "viability, T/C", "setting": "second compound 0.3 µM, first compound 0.003 µM", "result": 37.6, "unit": "%"}, {"measurement": "viability, T/C", "setting": "second compound 0.3 µM, first compound 0.00949 µM", "result": 28.2, "unit": "%"}, {"measurement": "viability, T/C", "setting": "second compound 0.3 µM, first compound 0.03 µM", "result": 30.8, "unit": "%"}, {"measurement": "viability, T/C", "setting": "second compound 0.3 µM, first compound 0.0949 µM", "result": 23.8, "unit": "%"}, {"measurement": "viability, T/C", "setting": "second compound 0.3 µM, first compound 0.3 µM", "result": 16.9, "unit": "%"}]}]}
